Measurements: patent US5157020A, “Synthetic senescent cell antigen” (Research Corporation Tech., Inc., priority 1990, dated 1992)
“Also recorded” adds a separate entry of the source. Where a SMILES comes first, the peptide text is derived from it.

Experiments:
[1] = Solubility of peptides in physiologic solutions; type: physicochemical; settings: even when coupled to BSA
Experimental: Peptides. Peptides were prepared by solid phase synthesis using an Applied Biosystems 430A automatic peptide synthesizer. They were analyzed by amino acid analysis, HPLC, sequencing, and/or FABS to determine purity. Amino acids are referred to by the standard single letter code. Peptides that are not soluble in phosphate buffered saline were dissolved in 1-2% NaDodSO4. Others were solubilized in acetic acid or trifluoroacetic acid, and sodium dodecyl sulfate (1-2%) is added. Once the peptides were in solution, they were conjugated to ovalbumin (5X crystallized) or BSA with 0.02% glutaraldehyde (32). The reaction was allowed to proceed for 30-60 min. blocked with ethanolamine, and the conjugate dialysed against PBS in tubing with a molecular weight cut off of ≤1000.

senescent cell IgG [2] = assay: IgG binding and inhibition assay (competitive inhibition of senescent cell IgG binding to stored erythrocytes, 125I-Protein A); set-up: species or system human; settings: for INHIBITION (%) of senescent cell IgG binding: Table 1, peptides 300 ug, senescent cell IgG 3 ug, 90 mins at room temperature, mean ± 1 SD of quadruplicate samples; for inhibition of senescent cell IgG binding (in words): competitive inhibition assay; for INHIBITION (%) of senescent cell IgG binding to erythrocytes, before or after DIDS modification: Table 4, 30 ug, stored red cells, ± SD, unmodified ANION 1 and COOH from a separate experiment
Experimental: IgG binding and inhibition assay. IgG was isolated from senescent RBC from 50 liters of blood and purified with Protein A Sepharose as previously described (2, 4). IgG eluted from senescent cells (SCIgG), rather than serum IgG, was used because normal serum contains antibodies to spectrin, actin, 2.1, etc. (28). Competitive inhibition studies were performed using synthetic peptides to absorb the IgG isolated from senescent erythrocytes. Intact dimeric, senescent cell IgG containing the Fc portion binds to senescent cells in situ and initiates their removal (1-7, 30). Fab fragments were not used because we were simulating the physiological situation. IgG isolated from aged erythrocytes binds specifically to senescent cells. […] Moreover, the specific binding capacity of the autoantibody was eliminated by absorption with purified senescent cell antigen (SCA; 7). […] Storage mimics normal aging in situ immunologically and biochemically (1-7, 30). The number of red cell-bound IgG molecules was quantitated before and after absorption using equilibrium binding kinetics (7, 30, 31). Details of the methods are given elsewhere (27). Percent inhibition was calculated from the following formula: 100[1-(x-b/T-b)] where x=molecules of IgG autoantibody bound per cell; T=total number of IgG antibody molecules bound in the absence of inhibitor; b=background Protein A binding.
Competitive inhibition studies were performed using synthetic peptides to absorb the IgG isolated from senescent erythrocytes. IgG binding and inhibition were determined with a protein A binding assay. This biological assay measures the fate of erythrocytes in vitro and in vivo (1, 2, 4).
IgG binding and inhibition assay. Competitive inhibition studies were performed using synthetic peptides to absorb the IgG isolated from senescent erythrocytes. This is the same IgG that initiates phagocytosis in situ. The Fc portion IgG is required for binding and phagocytosis of cells by macrophages (3, 2, 4, 7, 29). Fab fragments were not used because we were simulating the physiological situation. Intact dimeric, senescent cell IgG containing the Fc portion binds to senescent cells in situ and initiates their removal (3, 32, 2, 4, 6, 17, 7). Only IgG isolated from aged erythrocytes binds specifically to senescent cells. […] Moreover, the specific binding capacity of the autoantibody was eliminated by absorption with purified senescent cell antigen (39). […] Storage mimics normal aging in situ immunologically and biochemically (32, 2, 4, 6, 29, 7). After incubation with absorbed IgG, cells were washed four times with 40-50 volumes of phosphate buffered saline containing 0.2% bovine serum albumin (BSA, fraction V, Sigma, St. Louis, Mo.) and 0.5% glucose. Washed cells were transferred to BSA-coated tubes (5×10^7 cells/50 ul) and incubated for 30 min. at 37° C. with ^125 I-Protein A (Amersham, Arlington Heights, Ill. 30-38 mCi/mg, 10-15 ng/tube). Cells were then washed four times and transferred to new tubes before counting in a gamma scintillation counter (Beckman, Gamma 5,500). The number of red cell-bound IgG molecules was quantitated before and after absorption using equilibrium binding kinetics (7).
Scatchard analysis was performed. Scathard, NY Acad. Sci. 51:660-672 (1949), incorporated herein by reference. Percent inhibition was calculated from the following formula: 100[1-(x-b/T-b)] where x=molecules of IgG autoantibody bound per cell; T=total number of IgG antibody molecules bound in the absence of inhibitor; b=background Protein A binding.

[3] = system: erythrocyte anion transport; assay: Peptide inhibition of sulfate influx (anion transport) in erythrocytes; type: cell-based, human; settings: for inhibition of anion transport (in words): equimolar amounts of peptide and sulfate
Experimental: Anion transport and DIDS inhibition measurements. Sulfate exchange is inhibited by […]. Stilbenedisulfonate derivatives such as DIDS inhibit anion transport by binding to at least two lysine residues in the membrane-spanning region of band 3 (45, 23, 35).
Peptide inhibition of sulfate "influx" experiments were performed essentially according to method of Jennings (46) using 300 mM sucrose, 10 mM Tris-HEPES, pH 7.0, as the "influx" buffer (47). Washed cells were incubated in 20-30 volumes of 110 mM K2 SO4 for 10 min at 37° C. to replace intracellular chloride. The cells were centrifuged and the supernatant removed and replaced with 110 mM K2 SO4 for 10 min. This was repeated 3 times. After the last centrifugation, cells were resuspended 300 mM sucrose, 10 mM Tris-HEPES, pH 7.0, and washed once. Cells were suspended to 2×10^8 cells/ml in 2 ml influx buffer at 37° C. Radioactive sulfate (0.01 mM) was added (582 mCi/mM) at suitable time intervals. Samples were taken and added to 18 volumes of ice cold 1.15% KCl (154 mM KCl) buffered to pH 7.4 with MOPS ("wash buffer"). The high chloride concentration, temperature, and pH all inhibit sulfate transport. Cells were washed twice to remove external sulfate at 0° C. with wash buffer. All samples were deproteinized with trichloracetic acid (final concentration 6.7%) and counted with Ready-Solv HP/6 (Beckman, Fullerton, Calif.) in a liquid scintillation counter. For peptide inhibition of sulfate transport, 0.01 mM of peptide(s) were added to the radioactive sulfate prior to addition to cells suspended in influx buffer.

senescent cell IgG [4] = assay: Immunoblotting of synthetic peptides with IgG autoantibody from senescent erythrocytes; type: binding, human; settings: autoradiograph of immunoblot, FIG. 4
Experimental: Sodium dodecyl sulfate (NaDodSO4) polyacrylamide gel electrophoresis and immunostaining of peptides. Peptides were analyzed on 6-25% or 12-25% linear gels (6, 7, 27-29). Immunoautoradiography was performed by immunoblotting as described previously (6, 7, 28-30). Immunoblots were exposed to Kodak Ortho G (OG-1) film at -70° C. using our standard procedures (30, 45).
We used immunoblotting of the peptides followed by reaction with IgG eluted from senescent red cells (SCIgG) to localize the aging antigen site (FIG. 4A and B). We also used the IgG binding and inhibition assay at a singe concentration of peptide and performed Scatchard analysis (Table 2). […] Peptides that were negative by immunoblotting were also negative in the inhibition assay (FIG. 4 and Table 2).

[5] = at concentrations up to / as high as 100 ug
[6] = equimolar peptide and sulfate (0.01 mM)

| Molecule | solubility [1] | INHIBITION (%) of senescent cell IgG binding (senescent cell IgG [2]) | inhibition of senescent cell IgG binding (in words) (senescent cell IgG [2]) | inhibition of anion transport (in words) [3] | binding of senescent cell IgG to peptide in immunoblots (senescent cell IgG [4]) | also measured |
| --- | --- | --- | --- | --- | --- | --- |
| CC[C@H](C)[C@H](NC(=O)CNC(=O)[C@H](Cc1ccccc1)NC(=O)[C@H](CC(C)C)NC(=O)[C@@H](NC(=O)[C@H](C)NC(=O)[C@H](CC(C)C)NC(=O)[C@@H]1CCCN1C(=O)[C@@H](NC(=O)[C@H](CCCNC(=N)N)NC(=O)[C@H](CO)NC(=O)[C@H](CC(C)C)NC(=O)[C@@H](NC(=O)[C@@H]1CCCN1C(=O)[C@H](CCC(=O)O)NC(=O)[C@@H](N)CCSC)[C@@H](C)CC)[C@@H](C)CC)C(C)C)C(=O)N[C@@H](Cc1ccccc1)C(=O)N[C@@H](CC(C)C)C(=O)O [776-793, MEPILSRIPLAVLFGIFL] (H-MEPILSRIPLAVLFGIFL-OH) | not completely soluble | – | – | – | – | – |
| CC[C@H](C)[C@H](NC(=O)CNC(=O)[C@H](CO)NC(=O)[C@H](CC(C)C)NC(=O)[C@H](CO)NC(=O)[C@@H](NC(=O)[C@@H](NC(=O)CNC(=O)[C@H](CCSC)NC(=O)[C@H](Cc1ccc(O)cc1)NC(=O)[C@H](CC(C)C)NC(=O)[C@H](Cc1ccccc1)NC(=O)[C@@H](NC(=O)CNC(=O)[C@@H](N)Cc1ccccc1)[C@@H](C)CC)C(C)C)[C@@H](C)O)C(=O)N[C@@H](CCC(N)=O)C(=O)N[C@@H](CC(C)C)C(=O)O [789-805, FGIFLYMGVTSLSGIQL] (H-FGIFLYMGVTSLSGIQL-OH) | not completely soluble | – | – | – | – | – |
| CC[C@H](C)[C@H](NC(=O)CNC(=O)[C@H](CO)NC(=O)[C@@H](N)CC(C)C)C(=O)N[C@@H](CCC(N)=O)C(=O)N[C@@H](CC(C)C)C(=O)N[C@@H](Cc1ccccc1)C(=O)N[C@@H](CC(=O)O)C(=O)N[C@@H](CCCNC(=N)N)C(=O)N[C@H](C(=O)N[C@@H](CC(C)C)C(=O)N[C@@H](CC(C)C)C(=O)N[C@@H](CC(C)C)C(=O)N[C@@H](Cc1ccccc1)C(=O)N[C@@H](CCCCN)C(=O)N1CCC[C@H]1C(=O)N1CCC[C@H]1C(=O)N[C@@H](CCCCN)C(=O)N[C@@H](Cc1ccc(O)cc1)C(=O)O)[C@@H](C)CC [800-818, LSGIQLFDRILLLFKPPKY] (H-LSGIQLFDRILLLFKPPKY-OH) | not completely soluble | – | – | – | – | – |
| AGVANQLLDRFIFEDQ [CYTO, reference compound] | – | 0% | does not inhibit | – | – | – |
| FKPPKY (UniProt P02730 813-818, looked up, fragment) [N6] | – | – | – | potent inhibitors of anion transport | – | inhibition of senescent cell IgG binding (senescent cell IgG [2]; at 10 ug): 48±1%; inhibition of senescent cell IgG binding (senescent cell IgG [2]; at 10 ug, listed as COOH hexamer (N6)): ~ 50% |
| LFKPPKYHPDVPYVKR [COOH] | – | 99 ± 1% | inhibitory over a range of 3 to 100 ug | potent inhibitors of anion transport | binding | INHIBITION (%) of senescent cell IgG binding to erythrocytes, before or after DIDS modification (senescent cell IgG [2]): 20 ± 1%; inhibition of senescent cell IgG binding (senescent cell IgG [2]; [5]): ≤ 50%; inhibition of anion transport ([3]; at 5 min, FIG. 7, compared to control without peptide): 52±3% |
| LRKFKNSSYFPGKLR [ANION 2] | – | 30 ± 12% | only slightly inhibitory; also recorded: only weakly inhibitory | – | bound | inhibition of anion transport [3, 6]: 38±4% |
| QKLSVPDGFKVSNSSARGW [GLYCOS] | – | – | only weakly inhibitory | – | Binding of antibody | INHIBITION (%) of senescent cell IgG binding to erythrocytes (senescent cell IgG [2]; Table 2, all peptides tested at 30 ug, ± standard deviation): 9 ± 0% |
| SKLIKIFQDHPLQKTYN [ANION 1] | – | 88 ± 7% | inhibitory over a range of 3 to 100 ug | does not inhibit anion transport | trace binding | INHIBITION (%) of senescent cell IgG binding to erythrocytes, before or after DIDS modification (senescent cell IgG [2]): 32 ± 2%; inhibition of senescent cell IgG binding (senescent cell IgG [2]; [5]): ≤ 50%; inhibition of anion transport [3, 6]: 8±7% |
| YHPDVPYVKR [818-827] | – | – | – | – | – | percent inhibition of senescent cell IgG binding (senescent cell IgG [2]; FIG. 2 legend, 12.2 ug): 54±7; inhibition of senescent cell IgG binding (senescent cell IgG [2]; at 30 ug): 54±3% |
